Reference: patent publication US20220264878A1, “HERBICIDAL COMPOSITION CONTAINING R-TYPE PYRIDYLOXY CARBOXYLIC ACID DERIVATIVE AND USE THEREOF” (Qingdao Kingagroot Chemical Compound Co., Ltd., priority 2019, published 2022)

Experiments:
Assay in all cases: Post-emergence foliage spray, pot culture, fresh weight inhibition (Tables 1-48, 51-98, 101-148; 24 days)
Format in all cases: in vivo
Chenopodium album = test system: Chenopodium album
Method in brief: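 Pot-grown weeds were thinned to 15 per pot (45 per treatment) and sprayed on foliage at the 5–6-leaf stage for grasses or the 6–7-leaf stage for broadleaves. Agents were dissolved in acetone with 0.1% Tween-80 and applied at 450 kg/ha spray volume and 0.3 MPa. Plants were then kept in a greenhouse. Above-ground fresh weight of survivors, with dead plants counted as zero, gave inhibition versus a solvent/emulsifier blank.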

Capsella bursa-pastoris = test system: Capsella bursa-pastoris
Method in brief: (§1)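 Greenhouse pot plants (20–30 °C, natural light, 57–72% RH) were sprayed once on foliage at 450 kg/ha and 0.3 MPa, at the 5–6-leaf (grass) or 6–7-leaf (broadleaf) stage. Compounds were in acetone diluted with 0.1% Tween-80 water. Surviving shoots were weighed at 24 days; dead plants counted as zero.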

Eleusine indica = test system: Eleusine indica
Method in brief: as §1

Setaria glauca = conditions: Table 84
Method in brief: as §1

Sonchus arvensis = test system: Sonchus arvensis
Method in brief: as §1

[1] = test system: Veronica persica^2 (collected in Zhumadian of Henan Province)
Method in brief: as §1

Amaranthus retroflexus = test system: Amaranthus retroflexus
Method in brief: as §1

Conyza Canadensis = test system: Conyza Canadensis
Method in brief: as §1

Eclipta prostrate = conditions: fresh weight inhibition after 24 days
Method in brief: as §1

Setaria viridis = conditions: A = A2 alone, g a.i./ha: r10 60, r11 60, r12 30, r13 30
Method in brief: as §1

`C[C@@H](Oc1nc(F)c(Cl)c(N)c1Cl)C(=O)O` [Compound A1] was tested, and the “Control effect (%) of A applied alone in corresponding dose” value (“Control effect (%) of A applied alone” for short) (Chenopodium album; A1 7.5 g a.i./ha) was 23.1%, the “Control effect (%) of A applied alone” value (Chenopodium album; A1 15 g a.i./ha) was 55.6% and the “Control effect (%) of A applied alone” value (Chenopodium album; Table 91, 75 g a.i./ha) was 23.1%. For the same compound, the “Control effect (%) of A applied alone” value (Chenopodium album; Table 91, 150 g a.i./ha) was 55.6%, the “Control effect (%) of A applied alone” value (Chenopodium album; Table 92, 75 g a.i./ha) was 23.1% and the “Control effect (%) of A applied alone” value (Chenopodium album; Table 92, 150 g a.i./ha) was 55.6%. For the same compound, the “Control effect (%) of A applied alone” value (Chenopodium album; Table 93, 75 g a.i./ha) was 23.1%, the “Control effect (%) of A applied alone” value (Chenopodium album; Table 93, 150 g a.i./ha) was 55.6% and the “Control effect (%) of A applied alone” value (Chenopodium album; Table 94, 75 g a.i./ha) was 23.1%. For the same compound, the “Control effect (%) of A applied alone” value (Chenopodium album; Table 94, 150 g a.i./ha) was 55.6%, the “Control effect (%) of A applied alone” value (Chenopodium album; Table 95, 75 g a.i./ha) was 23.1% and the “Control effect (%) of A applied alone” value (Chenopodium album; Table 95, 150 g a.i./ha) was 55.6%. The “Control effect (%) of A applied alone” value (Chenopodium album; Table 96, 75 g a.i./ha) was 23.1%, the “Control effect (%) of A applied alone” value (Chenopodium album; Table 96, 150 g a.i./ha) was 55.6% and the “Control effect (%) of A applied alone” value (Capsella bursa-pastoris; A1 7.5 g a.i./ha) was 36.2%. For the same compound, the “Control effect (%) of A applied alone” value (Capsella bursa-pastoris; A1 15 g a.i./ha) was 75.9%, the “Control effect (%) of A applied alone” value (Eleusine indica; Table 79, 75 g a.i./ha) was 24.4% and the “Control effect (%) of A applied alone” value (Eleusine indica; Table 79, 150 g a.i./ha) was 52.2%. For the same compound, the “Control effect (%) of A applied alone” value (Eleusine indica; Table 82, 75 g a.i./ha) was 24.4%, the “Control effect (%) of A applied alone” value (Eleusine indica; Table 82, 150 g a.i./ha) was 52.2% and the “Control effect (%) of A applied alone” value (Eleusine indica; Table 83, 75 g a.i./ha) was 24.4%. For the same compound, the “Control effect (%) of A applied alone” value (Eleusine indica; Table 83, 150 g a.i./ha) was 52.2%, the “Control effect (%) of A applied alone” value (Setaria glauca; 30 g a.i./ha) was 34.7% and the “Control effect (%) of A applied alone” value (Setaria glauca; 60 g a.i./ha) was 57.6%. For the same compound, the “Control effect (%) of A applied alone” value (Sonchus arvensis; A1 30 g a.i./ha) was 33.3%, the “Control effect (%) of A applied alone” value (Sonchus arvensis; A1 60 g a.i./ha) was 70.7% and the “Control effect (%) of A applied alone” value ([1]; Table 87, 75 g a.i./ha) was 19.6%. The “Control effect (%) of A applied alone” value ([1]; Table 87, 150 g a.i./ha) was 42.4%, the “Control effect (%) of A applied alone” value ([1]; Table 88, 75 g a.i./ha) was 19.6% and the “Control effect (%) of A applied alone” value ([1]; Table 88, 150 g a.i./ha) was 42.4%. For the same compound, the “Control effect (%) of A applied alone” value ([1]; Table 90, 75 g a.i./ha) was 19.6% and the “Control effect (%) of A applied alone” value ([1]; Table 90, 150 g a.i./ha) was 42.4%.
With `C[C@@H](Oc1nc(F)c(Cl)c(N)c1Cl)C(=O)OCC1CCCO1` (stereo partly shown) [Compound A2] the “Control effect (%) of A applied alone” value (Amaranthus retroflexus; A2 75 g a.i./ha) was 22.9%, the “Control effect (%) of A applied alone” value (Amaranthus retroflexus; A2 150 g a.i./ha) was 52.4% and the “Control effect (%) of A applied alone” value (Conyza Canadensis; A2 75 g a.i./ha) was 36.7%. For the same compound, the “Control effect (%) of A applied alone” value (Conyza Canadensis; A2 150 g a.i./ha) was 57.2%, the “Control effect (%) of A applied alone” value (Eclipta prostrate; A 75 g a.i/ha) was 32.3% and the “Control effect (%) of A applied alone” value (Eclipta prostrate; A 150 g a.i/ha) was 68.4%. For the same compound, the “Control effect (%) of A applied alone” value (Setaria viridis; A2 alone at 30 g a.i./ha) was 32.7% and the “Control effect (%) of A applied alone” value (Setaria viridis; A2 alone at 60 g a.i./ha) was 56.3%.
